Drawing on the OPERA property sets (Mansouri et al. 2018), this text covers logP for 125 compounds.

Residues, ends and D or L forms follow the SMILES beside them. *: point of attachment. Cbz = O=C(OCc1ccccc1)*

Turning to `CCOc1cc(Cc2cnc(N)nc2N)cc(OCC)c1C(=O)CS(C)(=O)=O`, the logP is 0.79.
Then `CN(C)c1cc(Cc2cnc(N)nc2N)cc(N(C)C)c1`, with 1.6; and `COP(=O)(NC(C)(C)C)SC` (stereo not given), with 0.96.
Then `Cc1ccccc1C1=NCC(=O)Nc2ccc(Cl)cc21`, with 3.12; and `CSC(C)=NOC(=O)N(C)SN(C)C(=O)c1ccc(Cl)cc1`, with 2.6; and `NS(=O)(=O)c1cc2c(cc1[N+](=O)[O-])NCNS2(=O)=O`, with 0.2.
The same measure for `CCc1ccc2c(c1)N=C(C)NS2(=O)=O`: 1.25; for `Cc1ccccc1C1=NCC(=O)N(C)c2ccc(Cl)cc21`: 3.03; for `O=S1(=O)NC(c2cccs2)=Nc2ccccc21`: 1.68.
Take `O=C(O)CCCCCn1nnc2ccccc21`: the logP worked out at 0.86.
`NNC(=O)NC1CCCCC1`: the logP worked out at 0.15.
The same measure for `COc1cc(Cc2cnc(N)nc2N)cc(OC)c1CO`: 0.42; for `Clc1ccc(C2NCCS2)cc1` (stereo not given): 2.1; for `COc1cc(-n2[nH]c(C)cc2=O)nc(C)n1`: 0.72.
The same measure for `CC(=O)C(C#N)=NNc1ccccc1Cl`: 4.
The same measure for `Clc1cc(Cl)c(N=C2NCCN2)cc1Cl`: 2.11.
`COc1cc(Cc2cnc(N)nc2N)cc(OC)c1I` gave a logP of 2.4.
Then `O=C1CC2OCCC3CN4CCC56c7ccccc7N1C5C2C3CC46` (stereo not given), with 1.62; and `CC(C)(C)c1nnc(N)o1`, with 0.48.
Then `FC(F)(F)CCc1ccccc1`, with 3.31; and `O=C1OC(Cc2ccccc2)c2ccccc21` (stereo not given), with 3.12.
The same measure for `COc1c(O)cc(Cc2cnc(N)nc2N)cc1O`: -0.04.
In turn, `CCN1C(=N)SC(=Cc2ccc([N+](=O)[O-])o2)C1=O` gave a logP of 1.44.
Then `Cc1nnc(-c2ccccn2)o1`, with 0.46; and `CCCCN(SN(C)C(=O)Oc1cccc2c1OC(C)(C)C2)C(=O)OC`, with 4.6.
Compound `Clc1cc2ccccc2nn1` registered a logP of 1.57.
The same measure for `COc1cc(Cc2cnc(N)nc2N)cc(I)c1OC`: 2.33.
The same measure for `CN(C)C(=O)Cc1ccsc1`: 0.65; for `CC(C)Cc1nnc(N)o1`: 0.4; for `O=C(CNC(=O)c1ccccc1)Oc1cccc(F)c1`: 2.58.
The same measure for `Cn1ncc2c([N+](=O)[O-])cc([N+](=O)[O-])cc21`: 1.63; for `COc1cc(Cc2cnc(N)nc2N)cc2c1OCO2`: 1.38; for `COC(=O)C(C#N)=NNc1cc(C(F)(F)F)cc(C(F)(F)F)c1`: 5.02.
Take `COc1cc(Cc2cnc(N)nc2N)cc(OC)c1C(N)=O`: the logP was -0.85.
In turn, `Clc1cc(Cl)c(-c2ccccc2)cc1Cl` registered a logP of 5.81.
The same measure for `Nc1nc(N)nc(-c2cc(Cl)ccc2F)n1`: 1.81.
Then `CCC(C)c1ccccc1OC(=O)N(C)C` (stereo not given), with 3.31.
For `CC1=Nc2c(I)cc(Cl)cc2S(=O)(=O)N1`, the logP amounted to 1.81.
The same measure for `O=S(=O)(Nc1cccc(Br)c1)C(F)(F)F`: 3.82.
As for `CCCCCCCCCCCCS(=O)(=O)[O-].[Na+]`, the logP was determined as 0.96.
The same measure for `O=C(NC(CO)C(O)c1ccc(Cl)cc1)C(Cl)Cl` (stereo not given): 1.64; for `FC(F)(F)c1nc2ncccc2[nH]1`: 1.38; for `NC1CC2OC1c1ccccc12` (stereo not given): 0.75.
Then `CSCN1C(=O)CN=C(c2ccccc2)c2cc(N)ccc21`, with 1.92.
Compound `CCCC(=O)Nc1ccc(C)cc1O` came in with a logP of 2.26.
The same measure for `COC(=O)C1CCCC(NC(=O)N(CCCl)N=O)C1` (stereo not given): 1.89; for `CC(C)C(NC(=O)C(Cc1ccccc1)NC(=O)OCc1ccccc1)C(=O)O` (stereo not drawn) (Cbz-Phe-Val-OH; configuration not given here): 2.88.
The same measure for `CSc1nncc(=O)n1N`: 0.38; for `ClC1C(Cl)C(Cl)C(I)C(Cl)C1Cl` (stereo not given): 4.05.
The same measure for `CCCCCC[n+]1ccccc1.[Br-]`: -2.03; for `COC(=O)C(C#N)=NNc1cc(C#N)ccc1C#N`: 2.81.
Compound `CCCCCn1nnc2ccccc21` had a logP of 3.22.
Then `COCN1C(=O)C(O)N=C(c2ccccc2)c2cc(N)ccc21` (stereo not given), with 0.75; and `O=C(O)COc1cc(F)cc(I)c1`, with 2.42.
The same measure for `O=C(NCCO)c1cccnc1`: -0.11; for `CN(C)C(=O)Oc1ccc([N+](=O)[O-])cc1`: 1.5.
Turning to `COc1ccc(N=NN(C)C(C)=O)cc1`, the logP stood at 2.61.
Then `CNC(=O)Oc1cc(C)c(Cl)cc1C`, with 2.95; and `CCOC(=O)C(=Cc1ccc(Cl)cc1)C(=O)OCC`, with 3.96; and `COc1cc(C)nc(-n2nc(C)cc2OC)n1`, with 1.26.
Then `COc1cc(C)c(Cc2cnc(N)nc2N)cc1OCc1ccccc1`, with 2.69.
Then `COC1=C(C)C(=O)c2ccccc2C1=O`, with 2.14.
As for `CC(=O)c1cccc(N2C(N)=NC(N)=NC2(C)C)c1`, the logP was -0.22.
Then `CSC(C)=NOC(=O)N(C)SN(C(=O)c1ccc(C)cc1)C(C)C`, with 3.4; and `c1ccc(Nc2ccccn2)cc1`, with 2.75; and `COc1cc(Cc2cnc(N)nc2N)ccc1N`, with 0.49.
As for `CCCCCCCCCCCCCCCC[n+]1ccc(C)cc1C.[I-]`, the logP amounted to 3.9.
Then `CCNP(=O)(OC)SC` (stereo not given), with 0.07; and `COC(=O)C(C#N)=NNc1ccc(C(F)(F)F)cc1[N+](=O)[O-]`, with 3.44; and `CC/N=C(N)/N=C(\N)Nc1ccc(Cl)cc1`, with 2.14.
Then `COc1cc(Cc2cnc(N)nc2N)ccc1O`, with 0.64; and `CC(=O)c1ccccc1OC(=O)N(C)C`, with 0.93; and `Oc1ccc(C(c2ccc(O)cc2)c2nccs2)cc1`, with 2.96.
Regarding `CC1(C)SC2C(NC(=O)C(Cl)c3ccccc3)C(=O)N2C1C(=O)O` (stereo not given), the logP came to 2.3.
Then `COc1nnc(C(C)C)c(=O)n1N`, with -0.06; and `CC1=Nc2c(Cl)cccc2S(=O)(=O)N1`, with 0.72; and `CCCCN(C)CCS(=O)(=O)c1cc(OC)c(OC)c(OC)c1`, with 2.05.
In turn, `CCCOn1c(=O)[nH]c(C)c(Br)c1=O` had a logP of 0.76.
The same measure for `Cc1nc(-c2ccccn2)no1`: 0.79; for `S=C=NC(c1ccccc1)c1cccc2ccccc12` (stereo not given): 6.44.
The same measure for `CCC(=O)N(C)SN(C)C(=O)Oc1cccc2c1OC(C)(C)C2`: 3.2; for `CCOC(=O)C(C#N)=NNc1ccc(Cl)c(Cl)c1`: 4.66.
The same measure for `COc1ccc(CCCC(=O)O)cc1`: 2.33.
`N#Cc1ccc2nccnc2c1` returned a logP of 1.01.
With `CCCCCC[n+]1ccc(C)c(C)c1.[I-]`, the lipophilicity (logP) was -1.51.
Then `CCOc1c(OC)cc(Cc2cnc(N)nc2N)cc1OC`, with 1.34; and `CN(C)CNC(=O)c1ccccc1`, with 0.63.
Then `O=NN(CCCl)C(=O)NC(CCC(=O)O)C(=O)O` (stereo not given), with 0.6.
Then `Cc1ccc(Cl)c(Cl)c1NC1=NCCN1`, with 2.35; and `CCOC(=O)C(C#N)=NNc1cc(C(F)(F)F)ccc1Cl`, with 4.45.
`ClC1C(Cl)C(Cl)C(Br)C(Br)C1Cl` (stereo not given) showed a logP of 3.88.
Compound `O=C1CCC(=O)N1c1ccccc1Cl` gave a logP of 0.56.
For `CC1=NS(=O)(=O)c2c(Cl)cccc2N1`, the logP came to 0.62.
The same measure for `O=S1(=O)NC(CCl)=Nc2cc(Cl)ccc21`: 1.68; for `CN(C)C(=O)Oc1ccc(Cl)cc1`: 2.27.
`COc1ccc(Cc2cnc(N)nc2N)cc1Br`: the logP came out at 1.88.
The same measure for `CCCCN(SN(C)C(=O)ON=C(C)SC)C(=O)c1ccccc1`: 3.4.
Then `CCc1cc(OP(=O)(OC)OC)ccc1[N+](=O)[O-]`, with 2.19.
The same measure for `CCC1(CC)SCC(=O)NC1=O`: 1.52; for `CC(=O)OCC1=C(C(=O)O)N2C(=O)C(NC(=O)CSc3cc(Cl)ccc3Cl)C2SC1` (stereo not given): 1.66; for `N#Cc1ccc(OC(=O)CNC(=O)c2ccccc2)cc1`: 2.11.
Turning to `O=C([O-])c1ccc2ccccc2c1.[Na+]`, the lipophilicity (logP) was -1.07.
Then `COc1cc(-n2c(=O)cc(C)n2C)ncn1`, with 0.3; and `C#CCOn1c(=O)[nH]c(C)c(Br)c1=O`, with -0.1; and `CCOP(=O)(OCC)Oc1ccc(SC)cc1C`, with 3.21.
Then `COc1ccc(Cc2cnc(N)nc2N)cc1C`, with 1.91.
The same measure for `O=NN(CCCl)C(=O)NC1CSCSC1`: 2.08.
Consider `COc1cc(-n2c(C)cc(=O)n2C)nc(C)n1`, for which the logP worked out at 0.38.
Then `Cc1cccc(C)c1C(=N)c1ccccc1`, with 3.53; and `CCOP(N)(=O)SCC` (stereo not given), with 0.15.
The same measure for `O=c1[nH]nc(CSc2ccccc2)[nH]1`: 1.46; for `COC(=O)N(C)SN(C)C(=O)Oc1cccc2c1OC(C)(C)C2`: 3.
Compound `CCCCC1=Nc2ccc(Cl)cc2S(=O)(=O)N1` registered a lipophilicity (logP) of 2.52.
Then `CCOP(=S)(OCC)Oc1ccc(SC)c(Cl)c1`, with 5.06; and `COC(=O)C(C#N)=NNc1ccc(SC(F)(F)F)cc1`, with 4.3.
The same measure for `CCc1c(OC)cc(Cc2cnc(N)nc2N)cc1OC`: 2.72.
Then `COc1cc(Cc2cnc(N)nc2N)cc(OC)c1Cl`, with 1.87; and `Cc1ccc(NC(=O)CN2CCCCC2)cc1`, with 2.96.
For the compound `NC(=O)CCCCn1nnc2ccccc21`, the logP is 0.58.
Then `O=S1(=O)NC(C2CC=CCC2)=Nc2ccccc21` (stereo not given), with 2.05.
As to `C[N+](C)(C)Cc1ccccn1.[Br-]`, the log partition coefficient (logP) is -3.4.
`CCN(CC)CCNC(=O)c1cc(F)cc(Cl)c1OC` came in with a logP of 3.18.
The same measure for `COc1ccc(CC(C)N)c(OC)c1` (stereo not given): 1.75.
The same measure for `COc1ccccc1NCC#N`: 1.3; for `CCCCCC[n+]1ccccc1C.[I-]`: -1.71.

A word on the logP: it is the decadic logarithm of the partition coefficient of the neutral form, usually between octanol and water. Low readings indicate a more hydrophilic compound, high ones a more lipophilic compound.
